The target in assay [1] is T1, hM1R (Homo sapiens, UniProt P11229).
T1 construct: host or cells: CHO cells, stably transfected; crude membranes
T1 sequence (P11229 1-460): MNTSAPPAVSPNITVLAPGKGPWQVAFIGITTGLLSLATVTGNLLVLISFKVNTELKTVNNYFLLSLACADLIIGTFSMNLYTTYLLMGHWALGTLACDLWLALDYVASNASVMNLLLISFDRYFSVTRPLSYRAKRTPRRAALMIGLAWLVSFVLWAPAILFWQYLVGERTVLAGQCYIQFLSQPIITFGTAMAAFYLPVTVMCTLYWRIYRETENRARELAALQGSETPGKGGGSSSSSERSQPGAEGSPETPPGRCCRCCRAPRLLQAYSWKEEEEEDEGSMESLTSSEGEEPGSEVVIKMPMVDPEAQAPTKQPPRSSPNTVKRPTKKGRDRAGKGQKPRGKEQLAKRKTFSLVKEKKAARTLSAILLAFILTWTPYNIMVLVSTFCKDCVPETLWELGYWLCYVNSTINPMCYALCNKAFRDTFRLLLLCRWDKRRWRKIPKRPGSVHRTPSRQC
Description: hM1R radioligand binding ([3H]NMS, CHO cell membranes). The procedure: (§1) To clearly explain the obtained outcome, we engaged the radioligand binding experiment. The hM1–hM5 radioligand binding experiments were performed in the membrane fractions of Chinese hamster ovary cells (CHO) stably expressing human variants of muscarinic receptors. N-[^3H]Methylscopolamine was used as the radiolabeled ligand.[39] Three compounds were selected from ex vivo screening on guinea pig ileum. […] This compound is also not completely selective for the remaining muscarinic receptor subtypes with −log Ki values over 6. […] It is also a potent muscarinic M1R antagonist, and the M1R/M2R selectivity ratio is <10. It is worth noting that such nonspecific anticholinergics are often associated with neuropsychiatric and cognitive disturbances and that nonselective muscarinic M1R/M2R antagonists, such as scopolamine, can produce cognitive deficits. Further structural modifications of ADS10227 should be used to increase selectivity toward the M2R, as these may present fewer potential side effects associated with the activation of the phospholipase C signaling pathway.
The culture was derived from CHO cells stably transfected with the genes of human variants of muscarinic receptors. These were purchased from Missouri S&T cDNA Resource Center (Rolla, MO, USA). Cell cultures and crude membranes were prepared as described previously.[45] The cells were grown to confluence in 75 cm^2 flasks in Dulbecco’s modified Eagle’s medium (DMEM) supplemented with 10% fetal bovine serum, and 2 million cells were subcultured to 100 mm Petri dishes. The medium was supplemented with 5 mM butyrate for the last 24 h of cultivation to increase receptor expression. Cells were detached by mild trypsinization on day 5 after subculture. Detached cells were washed twice in 50 mL of phosphate-buffered saline and 3 min centrifugation at 250g. […]
(§2) All radioligand binding experiments were optimized and carried out according to general guidelines.[39] […] N-Methylscopolamine binding was measured directly in saturation experiments using six concentrations (30–1000 pM) of [^3H]NMS during incubation for 1 h (M2R), 3 h (M1R, M3R, and M4R), or 5 h (M5R). For calculations of the equilibrium dissociation constant (KD), concentrations of free [^3H]NMS were calculated by subtraction of bound radioactivity from total radioactivity in the sample and fitting eq 1 (Experimental Data analysis section). The binding of the tested ligands was determined in competition experiments with 100 pM [^3H]NMS. […] Nonspecific binding was determined in the presence of 1 μM unlabeled atropine. […]

In assay [2] the target is T2, hM3R (Homo sapiens, UniProt P20309).
T2 construct: host or cells: CHO cells, stably transfected; crude membranes
T2 sequence (P20309 whole entry): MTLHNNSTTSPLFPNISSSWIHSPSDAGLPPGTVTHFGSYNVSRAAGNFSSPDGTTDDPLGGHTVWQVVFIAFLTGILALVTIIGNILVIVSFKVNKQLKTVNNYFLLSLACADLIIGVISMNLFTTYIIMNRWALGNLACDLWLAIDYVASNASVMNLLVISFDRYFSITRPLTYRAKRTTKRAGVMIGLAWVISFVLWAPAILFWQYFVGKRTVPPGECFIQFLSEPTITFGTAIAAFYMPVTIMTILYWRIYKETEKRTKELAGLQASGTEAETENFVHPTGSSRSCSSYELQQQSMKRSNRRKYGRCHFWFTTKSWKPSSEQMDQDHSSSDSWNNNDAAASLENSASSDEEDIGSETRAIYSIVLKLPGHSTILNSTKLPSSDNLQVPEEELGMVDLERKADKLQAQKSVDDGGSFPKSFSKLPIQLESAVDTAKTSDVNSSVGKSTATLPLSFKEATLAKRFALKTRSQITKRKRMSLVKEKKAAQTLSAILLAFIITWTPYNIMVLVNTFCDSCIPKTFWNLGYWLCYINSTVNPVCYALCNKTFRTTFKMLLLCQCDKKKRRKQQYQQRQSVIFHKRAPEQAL
Description: hM3R radioligand binding ([3H]NMS, CHO cell membranes). On the procedure:
as §1
The culture was derived from CHO cells stably transfected with the genes of human variants of muscarinic receptors. These were purchased from Missouri S&T cDNA Resource Center (Rolla, MO, USA). Cell cultures and crude membranes were prepared as described previously.[45] […]
as §2

For assay [3], the target named is T3, H1R (Cavia porcellus, UniProt P31389).
T3 construct: from tissue; host or cells: isolated distal ileum of male guinea pigs
T3 sequence (P31389 whole entry): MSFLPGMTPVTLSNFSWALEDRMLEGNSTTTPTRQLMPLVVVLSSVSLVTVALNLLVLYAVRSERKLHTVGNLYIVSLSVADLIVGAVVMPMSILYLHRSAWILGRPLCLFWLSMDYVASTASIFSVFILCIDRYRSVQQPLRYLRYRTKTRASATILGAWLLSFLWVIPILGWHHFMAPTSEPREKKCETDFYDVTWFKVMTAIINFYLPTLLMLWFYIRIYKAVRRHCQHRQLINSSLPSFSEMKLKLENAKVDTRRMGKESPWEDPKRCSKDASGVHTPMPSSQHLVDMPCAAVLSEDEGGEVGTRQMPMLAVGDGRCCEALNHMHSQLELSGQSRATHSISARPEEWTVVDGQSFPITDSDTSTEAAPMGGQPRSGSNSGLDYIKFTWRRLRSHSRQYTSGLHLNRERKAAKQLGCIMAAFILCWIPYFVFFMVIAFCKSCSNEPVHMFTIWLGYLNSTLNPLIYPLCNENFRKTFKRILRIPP
Description: Ex vivo screening of histamine H1R antagonists on guinea pig ileum, variant with 0.05 μM atropine. The settings on record: isolated guinea pig ileum, histamine as agonist. On the procedure:
The second histamine receptor located in the guinea pig ileum is H1R. […] The H1R antagonistic effect was measured on isolated guinea pig ileum stimulated to contract by histamine.[37] To assess and exclude the influence of the ADS compounds on muscarinic receptors, two test variations were used: one with the addition of 0.05 μM atropine and one without.
Male guinea pigs, weighing 300–400 g, were euthanized by a blow to the neck. A 20–30 cm length of the distal ileum, apart from the terminal 5 cm, was rapidly removed and placed in phosphate buffer at room temperature (pH 7.4) containing (mM) NaCl (136.9), KCl (2.6), KH2PO4 (1.47), Na2HPO4 (9.58), and indomethacin (1 × 10^–6 mol/L). The intraluminal content was rinsed, and the isolated intestine was cut into 1.5–2 cm segments. The preparations were mounted isotonically in a 20 mL organ bath filled with Krebs buffer: composition (mM) NaCl (118), KCl (5.6), MgSO4 (1.18), CaCl2 (2.5), NaH2PO4·H2O (1.28), NaHCO3 (25), glucose (5.55), and indomethacin (3 × 10^–7 mol/L). […] The solution was continuously bubbled with a 95% O2:5% CO2 mixture and maintained at 37 °C under a constant load of 0.5 g (Hugo Sachs Hebel–Messvorsatz (Tl-2)/HF-modem; Hugo Sachs Elektronik, Hugstetten, Germany) connected to a pen recorder (Kipp & Zonen BD41, Delft, Holland). During an equilibration period of 40 min, Krebs buffer was changed every 10 min. The first cumulative concentration–response curve was determined for histamine (10 nM to 10 mM) at increasing concentrations spaced by 3- or 3.3-fold. The second to the fourth (or fifth) curves were measured in the presence of an increasing concentrations of antagonist (incubation time 10 min). The pA2 values were calculated according to Arunlakshana and Schild.[37] Statistical analysis was carried out with the Students’ t test. In all tests, a p < 0.05 was considered statistically significant.

[4] abbreviates: read-out: hM1R -log(Ki) ± sem (converted).
Where [5] appears, read: read-out: hM3R -log(Ki) ± sem (converted).
[6] abbreviates: read-out: H1R+atropine pA2 gpi ± sem (converted).

The structures appear in SMILES notation. Like-named read-outs stand apart in the source and are kept apart here.

In general, Ki refers to the dissociation constant of the complex between target and ligand, obtained from inhibition or displacement. Regarding `N=C(N)N(CCCCN1CCN(CCCCCCCOc2ccccc2)CC1)Cc1ccccc1` [ADS1017], the inhibition constant Ki in assay [1] (hM1R -log(Ki) ± sem) was 141 nM; in assay [2] (hM3R -log(Ki) ± sem), 347 nM. This molecule also had a Kb in assay [3] (H1R+atropine pA2 gpi ± sem) of 251 nM.

Take `N=C(N)N(CCCCN1CCN(C[C@H]2CC[C@@H](COc3ccccc3)CC2)CC1)Cc1ccccc1` [ADS10227, 1-{4-{4-{[4-(phenoxymethyl)cyclohexyl]methyl}piperazin-1-yl}but-1-yl}-1-(benzyl)guanidine]: the figures for the inhibitory constant (Ki) in assay [1] (setting [4]) and in assay [2] (setting [5]) were 19.5 nM and 51.3 nM, respectively. Further, the Kb in assay [3] (setting [6]) is 257 nM.

For the molecule `[H]/N=C(/N)N(CCCCN1CCN(CC2CCC(COc3ccccc3)CC2)CC1)Cc1ccc(C(F)(F)F)cc1` (stereo not shown) [ADS10239], the inhibition constant (Ki) in assay [1] (read-out: affinity to hM1R (Ki)) is 45 nM; in assay [1] (setting [4]) it was 46.8 nM; in assay [2] (setting [5]) it was 123 nM. The Kb in assay [3] (setting [6]) was 151 nM.

Source of the values: paper PMC8291587, “Guanidine Derivatives: How Simple Structural Modification of Histamine H3R Antagonists Has Led to the Discovery of Potent Muscarinic M2R/M4R Antagonists” (ACS Chemical Neuroscience, 2021).
